In patent publication US20050181988A1, “Echinocandin cyclic peptide derivatives” (priority 2002, published 2005):
Like-named read-outs stand apart in the source and are kept apart here.

Tested on: Candida albicans FP-633
Assay: In vitro antimicrobial activity: MICs in mouse serum by the microdilution method
Assay type: cell-based
Protocol: In vitro antimicrobial activity of the object compound of Example 23, 46, 58 and 63 disclosed later was determined by MICS in mouse serum as described below.
The MICs in mouse serum were determined by the microdilution method using ICR mouse serum buffered with 20 mM HEPES buffer (pH 7.3) as a test medium. Inoculum suspension of 10^6 cells/ml were prepared by a hemocytometric procedure and diluted to obtain an inoculum size of approximately 1.0×10^3 cells/ml. Microplates were incubated at 37° C. for 24 hours in 5% CO2. The MICs was defined as the lowest concentrations at which no visible growth was observed.

Structure (SMILES)	MIC (FP633, microdilution in ICR mouse serum buffered with 20 mM HEPES (pH 7.3), inoculum approx. 1.0×10^3 cells/ml, 37° C., 24 hours, 5% CO2, lowest concentration with no visible growth, read-out: MIC (μg/ml), Candida albicans FP-633) [µg/mL]	MIC (FP633, 24 h, pH 7.3, read-out: MIC (μg/ml), Candida albicans FP-633) [µg/mL]
C[C@@H](O)[C@@H]1NC(=O)[C@@H](NC(=O)c2ccc(-c3nnc(-c4ccc(N5CCN([C@H]6CC[C@@H](C)CC6)CC5)nc4)s3)cc2)C[C@@H](O)CNC(=O)[C@@H]2[C@@H](O)[C@@H](C)CN2C(=O)[C@H]([C@H](O)CCN)NC(=O)[C@H]([C@H](O)Cc2ccc(O)c(OCCN)c2)NC(=O)[C@@H]2C[C@@H](O)CN2C1=O [Example 58]	< 0.2	
CCOCCOc1ccc(-c2ccc(-c3nnc(-c4ccc(C(=O)N[C@H]5C[C@@H](O)CNC(=O)[C@@H]6[C@@H](O)[C@@H](C)CN6C(=O)[C@H]([C@H](O)CCN)NC(=O)[C@H]([C@H](O)Cc6ccc(O)c(OCCCN)c6)NC(=O)[C@@H]6C[C@@H](O)CN6C(=O)[C@H]([C@@H](C)O)NC5=O)cc4)s3)cc2)cc1 [Example 46]		< 0.2
